Entries after “also recorded” stand apart in the source; their conditions may differ. One block for each compound: values may come before it.
Key:
[1] = tested on: HDAC4; experiment: Nuclear export of Flag-HDAC4 in cardiomyocytes (NRVMs), immunofluorescence; assay type: cell-based, rat; settings: for Effect of kinase inhibitor on PE-induced nuclear export of HDAC4: adenoviral Flag-HDAC4, inhibitor pretreatment 30 min, PE 4 hrs, Stauro 500 nmol/l, KN93 5 μmol/l, KN62 10 μmol/l, AIPII-2 500 nmol/l, Bis 2.5 μmol/l, Gö6976 200 nmol/l, H89 1 μmol/l; for Nuclear export of HDAC4 induced by adrenergic agonist: Flag-HDAC4, PE or Iso 10 μmol/l, up to 4 hrs
Text: (§1) Cardiomyocyte culture and adenoviral infection. NRVMs were isolated from 1-2 day Sprague Dawley rats. For adenovirus production, cDNAs encoding FLAG-tagged HDAC4 wild-type or a mutant containing alanines in place of serines 246, 467 and 632 (S/A) were subcloned into the pACCMV vector and co-transfected with pJM17 into 293 cells. Primary lysates were used to re-infect 293 cells and viral plaques were obtained using the agar overlay method. The production of adenoviral GFP-HDAC5 was described previously 18. NRVMs were infected 24 h after plating, starved for 4 h, and stimulated with PE or Iso for the indicated time period. In experiments with kinase inhibitors, NRVMs were pretreated with the inhibitor 30 min prior stimulation. For assessing cardiomyocyte hypertrophy, NRVMs were starved for 24 h and stimulated with PE for another 24 hrs. Subcellular localization of Flag-HDAC4 and cardiomyocyte hypertrophy, as assessed by sarcomeric organization, was determined by indirect immunofluorescence.
(§2) Indirect Immunofluorescence. COS cells were grown on glass coverslips, fixed in paraformaldehyde (4%), permeabilized in 0.1% Triton-X-100 and blocked in PBS containing goat serum (5%). Primary antibodies against FLAG (monoclonal or rabbit; Sigma), Myc (polyclonal, A-14; Santa Cruz), or HA (polyclonal, Y-11; Santa Cruz) were used at a dilution of 1:200. Secondary antibodies conjugated to either fluoresceine or Texas Red (Vector Laboratories) were also used at a dilution of 1:200. Staining of NRVMs for sarcomeres was performed with an antibody directed against sarcomeric α-actinin (Sigma). All images were captured at a magnification of ×40.

[2] = tested on: MEF2; experiment: Reporter assay of endogenous MEF2 activity (3xMEF2-Luc) in NRVMs; assay type: cell-based, rat; settings: ionomycin 0.25 μmol/l; for Effect on ionomycin-induced increase of endogenous MEF2 activity: NRVMs pretreated 30 min, Gö6976 200 nmol/l, KN93 2.5 μmol/l, KN62 5 μmol/l, CSA 1 μmol/l
Procedure: Endogenous MEF2 activity in NRVMs. One day after plating, a MEF2 dependent luciferase reporter (3xMEF2-Luc)56, carrying three MEF2-DNA binding sites, was transfected into NRVMs using Lipofectamine plus (Invitrogen; Carlsbad, Calif.). To control for transfection efficiency NRVMs were cotransfected with a β-galactosidase reporter plasmid (pCMV-lacZ). Twenty-four hours after transfection, NRVMs were starved for 24 h, pretreated with kinase inhibitors or cyclosporine for 30 min and stimulated with ionomycin for 24 h. Luciferase and β-galactosidase levels were quantified employing the Luciferase Assay Kit (Promega) and the FluoReporter Kit (Molecular probes), respectively.

[3] = tested on: HDAC5; experiment: Nuclear export of GFP-HDAC5 in cardiomyocytes (NRVMs); assay type: cell-based, rat; settings: PE 4 hrs
Text: as §1
Indirect Immunofluorescence. COS cells were grown on glass coverslips, fixed in paraformaldehyde (4%), permeabilized in 0.1% Triton-X-100 and blocked in PBS containing goat serum (5%). Primary antibodies against FLAG (monoclonal or rabbit; Sigma), Myc (polyclonal, A-14; Santa Cruz), or HA (polyclonal, Y-11; Santa Cruz) were used at a dilution of 1:200. […]

[4] = tested on: neonatal rat ventricular myocytes (NRVMs); experiment: Cardiomyocyte hypertrophy in NRVMs; assay type: cell-based; settings: data not shown
Text: as §1

[5] = tested on: HDAC4-GFP; experiment: Cellomics high content assay, nuclear localization of HDAC4-GFP in COS cells transfected with activated CaMKII; assay type: cell-based; settings: COS cells transfected with HDAC4-GFP and CaMKII; concentration range; fixed at 48 hrs; EC50 only in FIG. 12
Procedure: The plates are incubated at room temperature for 60 minutes.

[6] = tested on: HDAC4; experiment: Subcellular localization of HDAC4 in Cos cells with active CaMKIIδB mutants, leptomycin B treatment; assay type: cell-based; settings: 12 hours
Procedure: as §2, with “Cell culture and transfection assays. COS cells were maintained in DMEM with fetal bovine serum (10%), L-glutamine (2 mM), and penicillin-streptomycin. Transfection of COS cells was performed with Fugene 6 (Roche Molecular Biochemicals) according to manufacturer's instructions. Indirect” for “Indirect”

- Effect of kinase inhibitor on PE-induced nuclear export of HDAC4 [1]: did not affect
Compound: Cn1c2ccccc2c2c3c(c4c5ccccc5n(CCC#N)c4c21)C(=O)NC3 [Gö6976]
- Effect on ionomycin-induced increase of endogenous MEF2 activity [2]: did not affect

Compound: CNC[C@H](O)c1cccc(O)c1 [phenylephrine]
- Nuclear export of HDAC4 induced by adrenergic agonist [1]: time-dependent nuclear export
- Nuclear export of HDAC4 induced by adrenergic agonist ([1]; listed as PE): time-dependently induced nuclear export
- Nuclear export of HDAC5 in response to agonist [3]: exported
- Hypertrophic growth response [4]: evoked a hypertrophic growth response

Compound: CN[C@@H]1C[C@H]2O[C@@](C)([C@@H]1OC)n1c3ccccc3c3c4c(c5c6ccccc6n2c5c31)C(=O)NC4 [staurosporine]
- Dose response of HDAC4-GFP nuclear localization (Nuc-Cyto) [5]: smooth dose response curves

- Effect of kinase inhibitor on PE-induced nuclear export of HDAC4 [1]: did not affect
Compound: O=S(=O)(NCCNC/C=C/c1ccc(Br)cc1)c1cccc2cnccc12 [H89]

Compound: CN(C)CCCn1cc(C2=C(c3c[nH]c4ccccc34)C(=O)NC2=O)c2ccccc21 [bisindolylmaleimide I]
- Effect of kinase inhibitor on PE-induced nuclear export of HDAC4 [1]: did not affect

Compound: CN([C@@H](Cc1ccc(OS(=O)(=O)c2cccc3cnccc23)cc1)C(=O)N1CCN(c2ccccc2)CC1)S(=O)(=O)c1cccc2cnccc12 [KN62]
- Effect of kinase inhibitor on PE-induced nuclear export of HDAC4 [1]: markedly reduced; also recorded: effective in blocking
- Effect on ionomycin-induced increase of endogenous MEF2 activity [2]: blocked

Compound: C[C@H](CCC(=O)O)C[C@H](C)C[C@H](C)C(=O)/C=C(\O)[C@H](C)C[C@H](C)C/C=C/[C@@H](C)[C@@H](O)[C@@H](C)[C@@H](O)C[C@@H]1CC[C@@](C)([C@H]2CC[C@@](C)([C@@H](C)O)O2)O1 [Ionomycin, ionomycin]
- Endogenous MEF2 activity (3xMEF2-Luc) after stimulation ([2]; NRVMs): doubled

Compound: CC(C)NCC(O)c1ccc(O)c(O)c1 (centres unmarked) [isoprenaline]
- Nuclear export of HDAC4 induced by adrenergic agonist [1]: time-dependent nuclear export
- Nuclear export of HDAC4 induced by adrenergic agonist ([1]; listed as Iso): time-dependently induced nuclear export
- Hypertrophic growth response [4]: evoked a hypertrophic growth response

Compound: CCC(=C/[C@H](C)C/C=C/C(C)=C/[C@@H](C)C(=O)[C@@H](C)[C@H](O)[C@@H](C)C/C(C)=C/C(=O)O)/C=C/[C@@H]1OC(=O)C=C[C@@H]1C [leptomycin B]
- Nuclear accumulation of HDAC4 after leptomycin B ([6]; absence or presence of constitutive nuclear active CaMKIIδb T287D/S332A): completely accumulated in the nucleus; also recorded: accumulates in the nucleus
- Nuclear accumulation of HDAC4 after leptomycin B ([6]; presence of cytosolic active CaMKIIδb T287D/K328N/K329N or CaMKIIδb T287D): no accumulation
- Dose response of HDAC4-GFP nuclear localization (Nuc-Cyto) [5]: smooth dose response curves

- Effect of kinase inhibitor on PE-induced nuclear export of HDAC4 [1]: effective in blocking
- Effect of kinase inhibitor on PE-induced nuclear export of HDAC4 ([1]; listed as AIPII): markedly reduced
Compound: autoctamide-2 related inhibitory peptide II [AIPII-2]

Compound: COc1ccc(S(=O)(=O)N(CCO)c2ccccc2CN(C)C/C=C/c2ccc(Cl)cc2)cc1 [KN93]
- Effect of kinase inhibitor on PE-induced nuclear export of HDAC4 [1]: markedly reduced; also recorded: effective in blocking
- Effect on PE-induced nuclear export of HDAC5 ([3]; KN93 5 μmol/l pretreatment): not affected; also recorded: not blocked
- Effect on ionomycin-induced increase of endogenous MEF2 activity [2]: blocked
